{"source": "patent US12637434B2", "about": "“Salt of arylaminoquinazoline-containing compound, and preparation method therefor and use thereof” (priority 2020, dated 2026)", "key": {"[1]": {"experiment": "Solubility test in water and pH 2.0 buffer (HPLC)", "type": "physicochemical", "conditions": "for solubility in pH 2.0 buffer compared with Preparation Example 1 (in words): acidic conditions; for solubility: 25 °C, thermodynamic from solid; for Solubility (25° C., mg/mL) Medium: Water / Solubility (25° C., mg/mL) Medium: pH 2.0 buffer / solubility: 25° C.", "method": "2. Solubility (Water and pH 2.0 Buffer)\nDetection Instrument: Agilent 1260 High Performance Liquid Chromatograph\nDetection medium: purified water, pH 2.0 phosphoric acid-disodium hydrogen phosphate buffer\nPreparation of control solution: it was taken that an appropriate amount of the referen ce substance of the compound of Formula 1, accurately weighed, dissolved completely by solven t and diluted to 100 μg/mL. 10 μL of the prepared solution was accurately measured and the conte nts of Compound 1 were determined by HPLC.\nThe salts obtained in Preparation Example 1, Examples 1 to 4 and 9 and Comparative Examples 1 to 2 were tested for solubility in water and pH 2.0 buffer."}, "Long-term stability test": {"experiment": "Long-term stability test", "type": "physicochemical", "conditions": "for Purity (5 months) / Appearance / Crystalline form: 40 ± 2° C., 75% ± 5% RH, 5 months; for Appearance / Crystalline form: sealed with polyethylene film; for Purity (0 month): start of long-term stability test", "method": "An appropriate amount of the salt samples obtained in Examples 1 to 4 and 9 were sealed with a polyethylene film and placed for 5 months under the conditions of 40±2° C. and 75%±5% RH, and a long-term test was carried out."}, "Solid stability test": {"experiment": "Solid stability test", "type": "physicochemical", "conditions": "40° C./75% RH (open), 7 days", "method": "The dihydrochloride salt of Example 1 and the dihydrochloride salt tetrahydrate of Example 2 and Example 10 were all placed under the condition of 40° C./75% RH (open) for 7 days to perform the stability test."}, "[2]": {"experiment": "Solubility test in biological vehicles (FaSSIF, FeSSIF, SGF)", "type": "physicochemical", "method": "9. Determination of Solubility in Biological Vehicles\nThe preparation procedures of the biological vehicles (SGF, FeSSIF and FaSSIF) used for solubility determination were shown in the following table:\nTest method: a sample to be tested was added to a biological vehicles and prepared into a solution or suspension having a target concentration of 10 mg/mL. The resulting solution or suspension was shaken continuously at 200 rpm at 37° C. The suspension was filtered at 0.5 hour and the concentration of the compound in the filtrate was determined by using HPLC.\nSolubility Test in Biological Vehicles\nThe samples of Example 1 and Example 10 (20 mg each) were weighed, and different biological vehicles (2 mL) were added threreto to perform the solubility test, and the results were shown in Table 11."}, "[3]": {"experiment": "Solubility test in conventional organic solvents", "type": "physicochemical", "method": "Solubility Test in Conventional Organic Solvents\nThe solubility test of the sample of Preparation Example 1 in different organic solvents was carried out by using the method in the Pharmacopoeia (Volume II, the general examples), and the solubility of the sample of Example 1 in different organic solvents was estimated using the gravimetric method, and the results were shown in Table 15."}, "human melanoma A375": {"system": "human melanoma A375", "experiment": "Pharmacodynamic experiment of human melanoma A375 nude mice xenograft tumor model", "type": "in vivo, nu/nu female nude mice", "conditions": "once a day, 20 days; for Tumor weight / Inhibition rate %: Day 21; for Inhibition rate %: tumor weight", "method": "Pharmacodynamic Experiment of Human Melanoma A375 Nude Mice Xenograft Tumor Model\nA well-growing human melanoma A375 cell suspension was inoculated into the subcutaneous tissue of the forelimb axilla of nu/nu female nude mice in an inoculation volume of 0.1 mL containing approximately 1×10^7 tumor cells. When the tumor volume grew to 100 mm^3 or more, the mice with good tumor growth were selected, and the animals were evenly divided into 5 groups according to the tumor volume: a Vehicle group, a Vandetanib 12.5 mg/kg group, a Vandetanib 25 mg/kg group, an Example 1 sample 12.5 mg/kg group, and an Example 1 sample 25 mg/kg group, and there were 6 animals in each group. The Vehicle group was orally administered with distilled water, and the remaining groups were orally administered with the corresponding tested drugs in a dosing volume of 20 mL/kg, once a day, and continuously administered for 20 days. The animals were housed normally after administration, and the anti-tumor effect of the tested drugs was dynamically observed by using the method of measuring the diameter of the tumors. At the end of the experiment (Day 21), the animals were sacrificed, and the tumors, were stripped and weighed, and the tumor inhibition rate was calculated."}, "[4]": {"conditions": "pH 2.0 phosphoric acid-disodium hydrogen phosphate buffer"}, "[5]": {"conditions": "purified water, water, purified water, read-out: Solubility (25° C., mg/mL) Medium: Water"}, "[6]": {"conditions": "0.5 h, 37° C., 200 rpm, target concentration 10 mg/mL, unit not given"}}, "data": [{"compound": "COc1cc2c(Nc3ccc(Br)cc3F)ncnc2cc1OCCCCN(C)C", "note": "[Comparative Example 1]", "values": [{"measurement": "Solubility (25° C., mg/mL) Medium: Water", "setting": "[1]; purified water", "result": "Jelly-like, solubility"}, {"measurement": "Solubility (25° C., mg/mL) Medium: Water", "setting": "[1]; purified water, listed as monohydrochloride salt", "result": "jelly-like"}]}, {"compound": "COc1cc2c(Nc3ccc(Br)cc3F)ncnc2cc1OCCCCN(C)C", "note": "[Comparative Example 2]", "values": [{"measurement": "Solubility (25° C., mg/mL) Medium: Water", "setting": "[1]; purified water", "result": "Jelly-like, solubility"}, {"measurement": "Solubility (25° C., mg/mL) Medium: Water", "setting": "[1]; purified water, listed as malate salt", "result": "jelly-like"}]}, {"compound": "COc1cc2c(Nc3ccc(Br)cc3F)ncnc2cc1OCCCCN(C)C", "note": "[Example 2]", "values": [{"measurement": "Solubility (25° C., mg/mL) Medium: pH 2.0 buffer", "setting": "[1]; [4]", "result": 7.69, "unit": "mg/mL"}, {"measurement": "Solubility (25° C., mg/mL) Medium: Water", "setting": "[1]; purified water", "result": 34.32, "unit": "mg/mL"}, {"measurement": "solubility in pH 2.0 buffer compared with Preparation Example 1 (in words)", "setting": "[1]", "result": "slightly lower"}, {"measurement": "Purity (5 months)", "setting": "Long-term stability test", "result": 98.56, "unit": "%"}, {"measurement": "Appearance", "setting": "Long-term stability test", "result": "White powder"}, {"measurement": "Crystalline form", "setting": "Long-term stability test", "result": "Unchanged"}, {"measurement": "Purity (0 month)", "setting": "Long-term stability test", "result": 98.55, "unit": "%"}, {"measurement": "Crystalline form", "setting": "Solid stability test", "result": "Unchanged"}, {"measurement": "Purity", "setting": "Solid stability test", "result": 98.54, "unit": "%"}]}, {"compound": "COc1cc2c(Nc3ccc(Br)cc3F)ncnc2cc1OCCCCN(C)C", "note": "[Example 3]", "values": [{"measurement": "Solubility (25° C., mg/mL) Medium: pH 2.0 buffer", "setting": "[1]; [4]", "result": 5.00, "unit": "mg/mL"}, {"measurement": "Solubility (25° C., mg/mL) Medium: Water", "setting": "[1]; purified water", "result": 10.91, "unit": "mg/mL"}, {"measurement": "solubility in pH 2.0 buffer compared with Preparation Example 1 (in words)", "setting": "[1]", "result": "slightly lower"}, {"measurement": "Purity (5 months)", "setting": "Long-term stability test", "result": 98.84, "unit": "%"}, {"measurement": "Appearance", "setting": "Long-term stability test", "result": "White powder"}, {"measurement": "Crystalline form", "setting": "Long-term stability test", "result": "Unchanged"}, {"measurement": "Purity (0 month)", "setting": "Long-term stability test", "result": 98.83, "unit": "%"}]}, {"compound": "COc1cc2c(Nc3ccc(Br)cc3F)ncnc2cc1OCCCCN(C)C.O=C(O)/C=C\\C(=O)O", "note": "[Example 4]", "values": [{"measurement": "solubility in pH 2.0 buffer compared with Preparation Example 1 (in words)", "setting": "[1]", "result": "slightly better"}, {"measurement": "solubility", "setting": "[1]; pH 2.0 phosphoric acid-disodium hydrogen phosphate buffer, pH 2, aqueous buffer, pH 2.0 phosphoric acid-disodium hydrogen phosphate buffer, read-out: Solubility (25° C., mg/mL) Medium: pH 2.0 buffer", "result": 12.5, "unit": "mg/mL"}, {"measurement": "solubility", "setting": "[1]; [5]", "result": 13.7, "unit": "mg/mL"}, {"measurement": "Purity (5 months)", "setting": "Long-term stability test", "result": 96.41, "unit": "%"}, {"measurement": "Appearance", "setting": "Long-term stability test", "result": "White powder"}, {"measurement": "Crystalline form", "setting": "Long-term stability test", "result": "Unchanged"}, {"measurement": "Purity (0 month)", "setting": "Long-term stability test", "result": 96.72, "unit": "%"}]}, {"compound": "COc1cc2c(Nc3ccc(Br)cc3F)ncnc2cc1OCCCCN(C)C.O=C(O)C(=O)O", "note": "[Example 9]", "values": [{"measurement": "solubility", "setting": "[1]; [5]", "result": 2.89, "unit": "mg/mL"}, {"measurement": "Purity (5 months)", "setting": "Long-term stability test", "result": 99.34, "unit": "%"}, {"measurement": "Appearance", "setting": "Long-term stability test", "result": "White powder"}, {"measurement": "Crystalline form", "setting": "Long-term stability test", "result": "Unchanged"}, {"measurement": "Purity (0 month)", "setting": "Long-term stability test", "result": 99.38, "unit": "%"}]}, {"compound": "COc1cc2c(Nc3ccc(Br)cc3F)ncnc2cc1OCCCCN(C)C", "note": "[Example 10]", "values": [{"measurement": "Solubility in FeSSIF (pH 5.0)", "setting": "[2]; 0.5 h, 37° C., 200 rpm, target concentration 10 mg/mL, unit inferred", "result": 7.3, "unit": "mg/mL"}, {"measurement": "Solubility in FaSSIF (pH 6.5)", "setting": "[2]; [6]", "result": "solution, >10"}, {"measurement": "Solubility in SGF (pH 1.2)", "setting": "[2]; [6]", "result": "solution, >10"}, {"measurement": "solubility in biological vehicles with different pH (in words)", "setting": "[2]; FaSSIF, FeSSIF, SGF", "result": "good solubility"}, {"measurement": "Crystalline form", "setting": "Solid stability test", "result": "Unchanged"}, {"measurement": "Purity", "setting": "Solid stability test", "result": 99.74, "unit": "%"}]}, {"compound": "COc1cc2c(Nc3ccc(Br)cc3F)ncnc2cc1OCCCCN(C)C", "note": "[Preparation Example 1, 4-(4-bromo-2-fluoroanilino)-6-methoxy-7-[(4-N,N-dimethylamino)butoxy]quinazoline]", "values": [{"measurement": "Solubility (25° C., mg/mL) Medium: Water", "setting": "[1]; purified water", "result": 0.036, "unit": "mg/mL"}, {"measurement": "water-solubility (in words)", "setting": "[1]; water", "result": "very poor water-solubility"}, {"measurement": "Solubility (mg/mL) in Acetone", "setting": "[3]; Acetone, Preparation Example 1 by Pharmacopoeia method, Example 1 estimated by gravimetric method", "result": 44.04, "unit": "mg/mL"}, {"measurement": "Solubility (mg/mL) in Acetonitrile", "setting": "[3]; Acetonitrile, Preparation Example 1 by Pharmacopoeia method, Example 1 estimated by gravimetric method", "result": 10.66, "unit": "mg/mL"}, {"measurement": "Solubility (mg/mL) in Dichloromethane", "setting": "[3]; Dichloromethane, Preparation Example 1 by Pharmacopoeia method, Example 1 estimated by gravimetric method", "result": 30.49, "unit": "mg/mL"}, {"measurement": "Solubility (mg/mL) in Ethanol", "setting": "[3]; Ethanol, Preparation Example 1 by Pharmacopoeia method, Example 1 estimated by gravimetric method", "result": 205.2, "unit": "mg/mL"}, {"measurement": "Solubility (mg/mL) in Ethyl acetate", "setting": "[3]; Ethyl acetate, Preparation Example 1 by Pharmacopoeia method, Example 1 estimated by gravimetric method", "result": 30.38, "unit": "mg/mL"}, {"measurement": "Solubility (mg/mL) in Isopropanol", "setting": "[3]; Isopropanol, Preparation Example 1 by Pharmacopoeia method, Example 1 estimated by gravimetric method", "result": 51.05, "unit": "mg/mL"}, {"measurement": "Solubility (mg/mL) in Methanol", "setting": "[3]; Methanol, Preparation Example 1 by Pharmacopoeia method, Example 1 estimated by gravimetric method", "result": ">60", "unit": "mg/mL"}, {"measurement": "Solubility (mg/mL) in Tetrahydrofuran", "setting": "[3]; Tetrahydrofuran, Preparation Example 1 by Pharmacopoeia method, Example 1 estimated by gravimetric method", "result": 201.4, "unit": "mg/mL"}, {"measurement": "solubility", "setting": "[3]; organic solvent or mixture, thermodynamic from solid, read-out: solubility in various conventional organic solvents (all)", "result": "> 10", "unit": "mg/mL"}]}, {"compound": "COc1cc2c(Nc3ccc(Br)cc3F)ncnc2cc1OCC1CCN(C)CC1", "note": "[Vandetanib, reference compound]", "values": [{"measurement": "Animal number (Survival/total)", "setting": "human melanoma A375; 12.5 mg/kg oral", "result": "6/6"}, {"measurement": "Tumor weight", "setting": "human melanoma A375; 12.5 mg/kg oral", "result": "2.89 ± 0.67", "unit": "g"}, {"measurement": "Inhibition rate %", "setting": "human melanoma A375; 12.5 mg/kg oral", "result": 15.18, "unit": "%"}, {"measurement": "Animal number (Survival/total)", "setting": "human melanoma A375; 25 mg/kg oral", "result": "6/6"}, {"measurement": "Tumor weight", "setting": "human melanoma A375; 25 mg/kg oral", "result": "1.90 ± 0.93", "unit": "g"}, {"measurement": "Inhibition rate %", "setting": "human melanoma A375; 25 mg/kg oral", "result": 44.15, "unit": "%"}]}]}
